According to ChEMBL document CHEMBL4673240, “Euphnerins A and B, Diterpenoids with a 5/6/6 Rearranged Spirocyclic Carbon Skeleton from the Stems of Euphorbia neriifolia” (J Nat Prod, 2020):
pIC50: −log10 of the molar value.

Assay: Inhibition of LPS-induced NO production in mouse BV-2 cells
Assay type: functional, cell-based

pIC50 | Compound
5.70 | CSC(=N)N
< 4.52 | C=C[C@@]1(C)CC[C@]2(C)C(=O)[C@@]3(CC[C@H]2C1)[C@H](O)CCC3(C)C
4.65 | C=C[C@@]1(C)CC[C@]2(C)C(=O)[C@@]3(CC[C@H]2C1)[C@H](O)C[C@@H](O)C3(C)C
